Test results from EP4650362A1, “NEUROPROTECTIVE PSD-95 POLYPEPTIDE INHIBITOR AND USE THEREOF” (Beijing Tuo Jie Biopharmaceutical Co. Ltd., priority 2023, dated 2024).
Read-outs that look alike come from different tables or passages of the source. Non-standard residues stand in square brackets, D forms with d. Residues, ends and D or L forms follow the SMILES beside them. Tle = CC(C)(C)[C@H](N)C(=O)O; Dab = NCC[C@H](N)C(=O)O; Aib = CC(C)(N)C(=O)O

Key:
[1] = nephrotoxicity in rats (blood urea nitrogen, serum creatinine); assay type: in vivo, SD rats; conditions: for Blood urea nitrogen (BUN) levels / Serum creatinine (Crea) levels: rat serum
Protocol: With male SD rats as test animals, the nephrotoxicity of a polypeptide compound administered via single intravenous bolus injection in rats (serum) was studied.
This test was performed synchronously with Test Examples 3.6, with blood collection time points set as follows: before administration (day 0), and days 2, 4, and 7 post-administration. At each time point, 0.3 mL of blood was collected, transferred to a centrifuge tube, and left to stand at room temperature for 1 h. Then the whole blood sample was centrifuged at 4 °C at 4000 g for 5 min, and a serum sample was obtained by separation and cryopreserved at -80 °C.
The blood urea nitrogen (BUN) and serum creatinine levels at each time point were determined through commercially available kits. For blood urea nitrogen, the urease continuous monitoring method was used. For serum creatinine, the sarcosine oxidase method was used. The sample was thawed in a refrigerator at 2 to 8 °C and vortexed for thorough mixing, and 100 µL of the sample was pipetted into a sample cup. The cup was placed in the sample position of a biochemistry analyzer, and assays were performed according to the instructions of the kits. The experimental results are shown in Tables 8-1 and 8-2, FIG. 5A, and FIG. 5B.

[2] = test system: histamine release; experiment: ability to induce histamine release in rats (plasma); assay type: in vivo, SD rats; set-up: Histamine levels (sums of detected histamine and 3-methylhistamine): unit not given here; conditions: for Histamine levels (sums of detected histamine and 3-methylhistamine): rat plasma
Protocol: With male SD rats as test animals, the ability of a polypeptide compound administered via single intravenous bolus injection to induce histamine release in rats (plasma) was studied.
This test was performed synchronously with Test Examples 3.6, with three animals per group and blood collection time points set as follows: before administration, and 2 min, 8 min, and 15 min after the end of intravenous bolus injection.
The histamine and 3-methylhistamine levels at each time point were determined by LC-MS/MS. LC-MS detection of compounds: (1) Chromatographic conditions: mobile phase A: acetonitrile/water/100 mM ammonium acetate, 50/45/5 (v/v/v), 2% FA; mobile phase B: acetonitrile/100 mM ammonium acetate, 95/5 (v/v), 2% FA; flow rate: 0.4 mL/min; chromatography column: Waters BEH HILIC 1.7 µm, 2.1 × 150 mm; column temperature: 50 °C; injection volume: 20 µL. (2) Mass-spectrometric conditions: The mass spectrometry analysis used an electrospray ionization (ESI) source, a positive ion analysis mode, and a multi-reaction monitoring (MRM) scan mode.
Sample pretreatment: A 30 µL plasma sample was taken and added to 200 µL of an acetonitrile solution containing tetradeuterated histamine (D4-histamine, 100 ng/mL). The mixture was vortexed for 1 min and then centrifuged at 5800 rpm for 10 min, and 100 µL of the supernatant was transferred to a sample tray and injected into an instrument for analysis. […] Table 7. Histamine levels at different time points

[3] = pharmacokinetic study of different doses in rats; assay type: in vivo, SD rats; conditions: SD, rat, plasma, intravenous bolus injection; for AUC(0-t): blood to 180 min, n = 3, read-out: AUC(0-t); for AUC(0-inf) / MRT / half-life: n = 3; for Cmax: n = 3, read-out: Cmax
Protocol: For example, at high doses, the agent causes symptoms such as tachycardia and blood pressure reduction due to excessive histamine release. Therefore, the pharmacokinetic profile of polypeptide compound 14 was assessed again using three doses: a high dose (3 nmol/g), a medium dose (1 nmol/g), and a low dose (0.3 nmol/g). […] Plasma concentration-time curves were plotted, and the pharmacokinetic parameters were calculated using WinNonlin software. Table 6. Intravenous bolus injection pharmacokinetic parameters in rats (different doses, n = 3)

[4] = test system: histamine release; experiment: ability to induce histamine release in beagle dogs (plasma); assay type: in vivo; set-up: Histamine levels (sums of detected histamine and 3-methylhistamine): unit not given here; conditions: for Histamine levels (sums of detected histamine and 3-methylhistamine): beagle dog plasma
Protocol: With beagle dogs as test animals, the ability of a polypeptide compound administered via single intravenous infusion to induce histamine release in dogs (plasma) was studied.
This test was performed synchronously with Test Examples 3.9, with four animals per group and blood collection time points set as follows: before administration (0 h), and 2 min, 5 min, and 15 min after the end of intravenous infusion.
Sample analysis and data processing were performed with reference to the methods in 3.7.3. Table 10. Histamine levels at different time points

[5] = 0.3 nmol/g, day 0 (before administration)
[6] = 1 nmol/g, day 0 (before administration)
[7] = 3 nmol/g, day 0 (before administration)

## CC(C)[C@H](NC(=O)[C@H](CC(=O)O)NC(=O)[C@@H](NC(=O)[C@@H](NC(=O)[C@@H](NC(=O)[C@@H](NC(=O)[C@H](CCN)NC(=O)C(C)(C)NC(=O)CNC(=O)[C@@H](CCCNC(=N)N)NC(=O)[C@@H](CCCNC(=N)N)NC(=O)[C@@H](CCCNC(=N)N)NC(=O)[C@@H](CCC(N)=O)NC(=O)[C@@H](CCCNC(=N)N)NC(=O)[C@@H](CCCNC(=N)N)NC(=O)[C@@H](CCCCN)NC(=O)[C@@H](CCCCN)NC(=O)[C@@H](CCCNC(=N)N)NC(=O)CNC(=O)[C@H](N)Cc1ccc(O)cc1)[C@@H](C)O)C(C)(C)C)C(C)(C)C)[C@@H](C)O)C(=O)O [Polypeptide compound 14, y-G-r-k-k-r-r-q-r-r-r-G-Aib-Dab-T-Tle-Tle-T-D-V] (H-[dY]G[dR][dK][dK][dR][dR][dQ][dR][dR][dR]G[Aib][Dab]T[Tle][Tle]TDV-OH)
[1]; [5]
  Blood urea nitrogen (BUN) levels: 11.8 ± 0.1 mg/dL
  Serum creatinine (Crea) levels: 0.192 ± 0.006 mg/dL
[1]; 0.3 nmol/g, day 2
  Blood urea nitrogen (BUN) levels: 13.7 ± 3.7 mg/dL
  Serum creatinine (Crea) levels: 0.200 ± 0.015 mg/dL
[1]; 0.3 nmol/g, day 4
  Blood urea nitrogen (BUN) levels: 16.6 ± 4.6 mg/dL
  Serum creatinine (Crea) levels: 0.212 ± 0.024 mg/dL
[1]; 0.3 nmol/g, day 7
  Blood urea nitrogen (BUN) levels: 15.3 ± 5.2 mg/dL
  Serum creatinine (Crea) levels: 0.205 ± 0.023 mg/dL
[1]; [6]
  Blood urea nitrogen (BUN) levels: 14.2 ± 3.0 mg/dL
  Serum creatinine (Crea) levels: 0.195 ± 0.013 mg/dL
[1]; 1 nmol/g, day 2
  Blood urea nitrogen (BUN) levels: 15.5 ± 1.8 mg/dL
  Serum creatinine (Crea) levels: 0.203 ± 0.018 mg/dL
[1]; 1 nmol/g, day 4
  Blood urea nitrogen (BUN) levels: 17.1 ± 2.7 mg/dL
  Serum creatinine (Crea) levels: 0.208 ± 0.017 mg/dL
[1]; 1 nmol/g, day 7
  Blood urea nitrogen (BUN) levels: 13.7 ± 1.4 mg/dL
  Serum creatinine (Crea) levels: 0.221 ± 0.005 mg/dL
[1]; [7]
  Blood urea nitrogen (BUN) levels: 16.3 ± 1.0 mg/dL
  Serum creatinine (Crea) levels: 0.22 ± 0.015 mg/dL
[1]; 3 nmol/g, day 2
  Blood urea nitrogen (BUN) levels: 16.2 ± 0.7 mg/dL
  Serum creatinine (Crea) levels: 0.208 ± 0.006 mg/dL
[1]; 3 nmol/g, day 4
  Blood urea nitrogen (BUN) levels: 16.0 ± 2.0 mg/dL
  Serum creatinine (Crea) levels: 0.226 ± 0.012 mg/dL
[1]; 3 nmol/g, day 7
  Blood urea nitrogen (BUN) levels: 14.5 ± 1.7 mg/dL
  Serum creatinine (Crea) levels: 0.233 ± 0.014 mg/dL
[1]; rats, within the tested concentration range, 7-day monitoring period
  renal safety concerns: neither NA-1 nor polypeptide compound 14 caused significant renal safety concerns
[2]; 0.3 nmol/g, 0 min (before administration)
  Histamine levels (sums of detected histamine and 3-methylhistamine): 34.1±21.7
[2]; 0.3 nmol/g, 2 min after the end of intravenous bolus injection
  Histamine levels (sums of detected histamine and 3-methylhistamine): 18.2±5.2
[2]; 0.3 nmol/g, 8 min after the end of intravenous bolus injection
  Histamine levels (sums of detected histamine and 3-methylhistamine): 38.7±16.8
[2]; 0.3 nmol/g, 15 min after the end of intravenous bolus injection
  Histamine levels (sums of detected histamine and 3-methylhistamine): 45.3±3.3
[2]; 1 nmol/g, 0 min (before administration)
  Histamine levels (sums of detected histamine and 3-methylhistamine): 45.5±14.4
[2]; 1 nmol/g, 2 min after the end of intravenous bolus injection
  Histamine levels (sums of detected histamine and 3-methylhistamine): 41.9±23.3
[2]; 1 nmol/g, 8 min after the end of intravenous bolus injection
  Histamine levels (sums of detected histamine and 3-methylhistamine): 59.4±53.5
[2]; 1 nmol/g, 15 min after the end of intravenous bolus injection
  Histamine levels (sums of detected histamine and 3-methylhistamine): 71.4±38.7
[2]; 3 nmol/g, 0 min (before administration)
  Histamine levels (sums of detected histamine and 3-methylhistamine): 50.2±28.7
[2]; 3 nmol/g, 2 min after the end of intravenous bolus injection
  Histamine levels (sums of detected histamine and 3-methylhistamine): 754.7±448.6
[2]; 3 nmol/g, 8 min after the end of intravenous bolus injection
  Histamine levels (sums of detected histamine and 3-methylhistamine): 558.0±405.6
[2]; 3 nmol/g, 15 min after the end of intravenous bolus injection
  Histamine levels (sums of detected histamine and 3-methylhistamine): 265.3±145.7
[2]; rats, medium (1 nmol/g) or low (0.3 nmol/g) dose, within 15 min
  increase in histamine levels: no significant increase in histamine levels
[2]; rats, same high dose (3 nmol/g), 2 min
  peak histamine release relative to NA-1: nearly twice that of NA-1
[3]; 0.3 nmol/g
  AUC(0-t): 1230 ng·h/mL
  AUC(0-inf): 1280 ng·h/mL
  MRT: 0.856 h
  half-life: 0.723 h
  Cmax: 1870 ng/mL
[3]; 1 nmol/g
  AUC(0-t): 5860 ng·h/mL
  AUC(0-inf): 6600 ng·h/mL
  MRT: 1.31 h
  half-life: 0.967 h
  Cmax: 5970 ng/mL
[3]; 3 nmol/g
  AUC(0-t): 15000 ng·h/mL
  AUC(0-inf): 17700 ng·h/mL
  MRT: 1.47 h
  half-life: 1.15 h
  Cmax: 18300 ng/mL

## CC(C)[C@H](NC(=O)[C@H](CC(=O)O)NC(=O)[C@@H](NC(=O)[C@@H](NC(=O)[C@@H](NC(=O)[C@@H](NC(=O)[C@H](CCN)NC(=O)C(C)(C)NC(=O)CNC(=O)[C@@H](CCCNC(=N)N)NC(=O)[C@H](CCCNC(=N)N)NC(=O)[C@H](CCCNC(=N)N)NC(=O)[C@H](CCC(N)=O)NC(=O)[C@@H](CCCNC(=N)N)NC(=O)[C@H](CCCNC(=N)N)NC(=O)[C@H](CCCCN)NC(=O)[C@H](CCCCN)NC(=O)[C@H](N)CCCNC(=N)N)[C@@H](C)O)C(C)(C)C)C(C)(C)C)[C@@H](C)O)C(=O)O [Polypeptide compound 22, r-K-K-R-r-Q-R-R-r-G-Aib-Dab-T-Tle-Tle-T-D-V] (H-[dR]KKR[dR]QRR[dR]G[Aib][Dab]T[Tle][Tle]TDV-OH)
[4]; 0.4 nmol/g, 0 min (before administration)
  Histamine levels (sums of detected histamine and 3-methylhistamine): 6.28±5.01
[4]; 0.4 nmol/g, 2 min after the end of intravenous infusion
  Histamine levels (sums of detected histamine and 3-methylhistamine): 9.45±7.38
[4]; 0.4 nmol/g, 5 min after the end of intravenous infusion
  Histamine levels (sums of detected histamine and 3-methylhistamine): 11.70±8.39
[4]; 0.4 nmol/g, 15 min after the end of intravenous infusion
  Histamine levels (sums of detected histamine and 3-methylhistamine): 7.97±2.75
[4]; 1.2 nmol/g, 0 min (before administration)
  Histamine levels (sums of detected histamine and 3-methylhistamine): 7.06±4.14
[4]; 1.2 nmol/g, 2 min after the end of intravenous infusion
  Histamine levels (sums of detected histamine and 3-methylhistamine): 12.71±10.47
[4]; 1.2 nmol/g, 5 min after the end of intravenous infusion
  Histamine levels (sums of detected histamine and 3-methylhistamine): 6.24±1.78
[4]; 1.2 nmol/g, 15 min after the end of intravenous infusion
  Histamine levels (sums of detected histamine and 3-methylhistamine): 5.81±1.44
[4]; beagle dogs, both doses (0.4 and 1.2 nmol/g)
  changes in histamine levels compared to before administration: no significant changes in histamine levels
